Read-outs that look alike come from different tables or passages of the source.
Columns and labels:
[1] = test system: Staphylococcus aureus (strain Newman); assay: Bacterial studies, blue light 9.5 J/cm^2 or dark, drop plate CFU (Examples 4-6); assay type: cell-based; details: for toxicity / eradication of S. aureus: dilution 1:1 with bacterial suspension
Experimental: (§1) Briefly, the components were mixed and dissolved in warm water (˜50° C.) before evaporation of the solvent at 45° C. for 15 min with a rotatory evaporator. The resulting NADES were transferred to polypropylene tubes with a tight cap. The individual components of each NADES were also prepared as solutions in MilliQ water in a concentration similar to the concentration in the final NADES preparation. All samples were diluted 1:1 with bacterial suspension (OD600 0.03) or 1:50, 1:100 and 1:200 with phosphate buffered saline (PBS, pH 7.4, Lonza, Verviers, Belgium) prior to dilution 1:1 with the bacterial suspension immediately before the bacterial studies.
(§2) The overnight cultures were centrifuged (4000 g, 22° C., 10 min), the medium replaced and diluted with PBS to OD600 0.03. The bacterial suspensions were mixed 1:1 with the samples described in the previous paragraph. A volume of 200 μl from each sample was transferred to the first and seventh well on each row on a 96 well plate (Nunclon sterile 96 well plate with lid, Thermo Fischer Scientific, Waltham, Mass.). Two identical plates were made each time, one for light treatment and one for dark controls. The plates containing E. faecalis or S. aureus samples were incubated for 10 min (37° C.), irradiated with blue light for 10 min (corresponding to 9.5 J/cm^2±10%) and incubated again for 10 min (37° C.). The plates containing E. coli samples were incubated for 30 min (37° C.), irradiated with blue light for 30 min (corresponding to 27 J/cm^2±10%) and incubated again for 30 min (37° C.). The plates containing the dark controls were treated similarly, but covered with aluminium foil during the irradiation period and placed beside the irradiation chamber. […] After treatment, the samples were diluted according to the 6×6 drop plate procedure, modified to 4×4 (each treatment was performed with four parallels). A volume of 15 μl from each dilution was then plated onto TSB agar plates, left to dry for a few minutes and incubated overnight (37° C.). Viable colony forming units (CFU)/ml were calculated by counting the CFUs, multiplying with the dilution factor and dividing by the application volume.
(§3) Briefly, the components of each NADES (see Table 7) were mixed and dissolved in a round flask with 50 ml of warm water (˜50° C.) before evaporation of the solvent at 45° C. for 15 min with a rotatory evaporator. TMAP (Frontier Scientific, Inc., Logan, Utah, USA) was then added to each NADES. […] The final concentration of TMAP was 1 nM. Samples of TMAP were also prepared in purified water (MilliQ) to be 1 nM after dilution 1:200 with PBS (pH 7.4, Lonza, Verviers, Belgium) or with a 6.8 mM citric acid solution (pH ˜4) and bacterial suspension.
(§4) TCPP (Frontier Scientific, Inc., Logan, Utah, USA) was added to each NADES. […] The final TCPP concentrations were 0.5 nM-1 μM. Samples of TCPP were also prepared in ethanol to be 1 nM-1 μM after dilution 1:200 with PBS (pH 7.4, Lonza, Verviers, Belgium) or with a 6.8 mM citric acid solution (pH ˜4) and bacterial suspension.

[2] = test system: Enterococcus faecalis (ATCC 19433); assay: as above; assay type: cell-based
Experimental: as §1, §2, §3, §4

[3] = test system: Escherichia coli (ATCC 25922); assay: Bacterial studies, blue light 27 J/cm^2 or dark, drop plate CFU (Examples 4-6); assay type: cell-based; details: for surviving colony forming units per ml / surviving colony forming units: E. coli
Experimental: as §1, §2, §3, §4

[4] = test system: C. albicans (ATCC CRM-10231); assay: Antifungal toxicity studies, blue light 27 J/cm^2 or dark (Example 8); assay type: cell-based, Candida albicans
Experimental: Briefly, the components of each NADES (see Table 13) were mixed and dissolved in a round flask with 50 ml of warm water ( 50° C.) before evaporation of the solvent at 45° C. for 15 min with a rotatory evaporator. The pure […] 35 and NADES 39 were mixed undiluted or after dilution 1:50 with phosphate buffered saline (PBS, Lonza, Verviers, Belgium) with the yeast suspension (1:1) in the toxicity studies. […] The concentrations of the excipients were the same as in the respective NADES after evaporation of unbound water. The solutions were diluted totally 1:1 or 1:100 with PBS and yeast suspension in the toxicity studies. […] The overnight cultures were centrifuged (4000 g, 22° C., 10 min), the medium replaced and diluted with PBS to OD600 0.1.

[5] = test system: S. epidermidis (ATCC 35984); assay: Phototoxicity studies, blue light 9.5 J/cm^2 or dark (Example 7); assay type: cell-based, Staphylococcus epidermidis
Experimental: as §2
(§5) The concentrations were adjusted give a final concentration of 1-20 nM porphyrin in the bacterial suspension after dilution with PBS (see Table 9). Aqueous solutions of 2.7 M citric acid, 2.3 M xylitol, 2.5 M sucrose, 5 M choline chloride and pure NADES, respectively, were used to investigate the toxicity of the individual compounds and NADES without a photosensitiser. The concentrations of the excipients were the same as in the respective NADES after evaporation of unbound water. The solutions were diluted totally 1:200 (or more) in the bacterial studies.
(§6) The treatments were performed with four parallels.
(§7) Gram-positive bacteria are generally considered to be more susceptible to photodynamic therapy than Gram-negative bacteria. Therefore, S. epidermidis was incubated for 10 min (37° C.), irradiated with blue light for 10 min (9.5 J/cm^2) and incubated again for 10 min while K. pneumoniae and P. aeruginosa were incubated for 30 min (37° C.), irradiated with blue light for 30 min (27 J/cm^2) and incubated again for 30 min.

[6] = test system: K. pneumoniae (ATCC 31844); assay: Phototoxicity studies, blue light 27 J/cm^2 or dark (Example 7); assay type: cell-based, Klebsiella pneumoniae; details: ±SD, n = 4; for % survival (27 J/cm^2): Dilution 1:200, blue light; for % survival (dark): Dilution 1:200, no irradiation
Experimental: as §2, §5, §6, §7

[7] = test system: P. aeruginosa (ATCC 9027); assay: as above; assay type: cell-based, Pseudomonas aeruginosa; details: for % survival (27 J/cm^2) / % survival (dark): ±SD, n = 4; for toxicity to P. aeruginosa: individual components of NADES 35, dilution 1:800
Experimental: as §2, §5, §6, §7

[8] = Polarity (ENR) testing with Nile red; assay type: physicochemical; details: Nile red absorption maximum
Experimental: Polarity (ENR) testing of NADES was performed with Nile red (NR) as a solvatochromatic probe. A small amount of NR was added to each deep eutectic solvent. The recorded absorption maximum (λmax) of NR was applied in the formula ENR (kcal/mol^−1)=hcλmaxNA=28591/λmax where h is Planck's constant, c is the velocity of light and NA is Avogadro's number (Ogihara W, et al., Chem Lett 2004; 33: 1414-1415; Saxena R, et al., Chem Phys Lipids 2014; 183: 1-8).

[9] = Dilution 1:200, blue light, ±SD, n = 4
[10] = Dilution 1:200, no irradiation, ±SD, n = 4
[11] = 2.1 M fructose, […] xylitol, […] sucrose, 5 M choline chloride diluted 1:1 or 1:100, dark or light, p>0.05
[12] = 1 nM TMAP in the citric acid solution, light
[13] = 1 nM TMAP in the diluted NADES 14, light

O=C(O)CC(O)C(=O)O (racemic) [Malic acid, DL-malic acid]
toxicity / eradication of S. aureus [1]: toxic | toxicity to S. aureus ([1]; dilution 1:100): not toxic | photoinactivation of E. faecalis ([2]; dilution 1:1 and 1:100 with PBS, blue light): complete photoinactivation | toxicity to E. coli ([3]; 2.1 M solution, 1:1 dilution and 1:100 dilution): highly toxic

C[N+](C)(C)CCO.[Cl-] [Choline chloride]
reduction in viable C. albicans [4]: No significant reduction | toxicity of individual NADES component to E. faecalis [2]: not toxic | toxicity of NADES 26 components to E. coli [3]: non-toxic | % survival (9.5 J/cm^2) [5]: 124 ± 7% | % survival (dark) [5]: 104 ± 12%

O=C(O)CC(O)(CC(=O)O)C(=O)O [Citric acid]
% survival (27 J/cm^2) [6]: 145 ± 2% | % survival (dark) [6]: 38 ± 18% | reduction in viable C. albicans after incubation in the dark ([4]; 2.7 M diluted 1:1): slight, though significant, reduction | reduction in viable C. albicans after light treatment ([4]; 2.7 M diluted 1:1, 27 J/cm^2 blue light): 73±8% | toxicity / eradication of S. aureus [1]: complete eradication | toxicity to S. aureus ([1]; dilution 1:100): not toxic anymore | toxicity to E. faecalis ([2]; 2.7 M solution, dilution ratios 1:1 up to 1:100): toxic | toxicity to E. faecalis ([2]; dilution 1:200, total treatment 30 min): did not reduce the number of viable colony forming units | toxicity / eradication of E. coli ([3]; dilution 1:1, with and without blue light): very toxic | phototoxicity to E. coli ([3]; dilution 1:100 (up to 1:100) with PBS, blue light): killed all the bacteria present | % survival (27 J/cm^2) ([7]; Dilution 1:400, blue light): 6 ± 2% | % survival (dark) ([7]; Dilution 1:400, no irradiation): 37 ± 9% | toxicity to P. aeruginosa [7]: not toxic at all | % survival (9.5 J/cm^2) [5, 9]: 0.1 ± 0.0% | % survival (dark) [5, 10]: 0.7 ± 0.3%

O=C(O)/C=C\C(=O)O [Maleic acid]
toxicity to S. aureus ([1]; dilution 1:400): no longer toxic | eradication of S. aureus ([1]; dilution ratios 1:1 up to 1:200, total treatment 30 min): complete eradication | eradication of E. faecalis ([2]; dilutions 1:1 to 1:400 with PBS (maleic acid 3.1 M before dilution)): complete eradication | toxicity to E. coli ([3]; 3.1 M solution, even at dilution 1:400): highly toxic

OC[C@H]1O[C@@](CO)(O[C@H]2O[C@H](CO)[C@@H](O)[C@H](O)[C@H]2O)[C@@H](O)[C@@H]1O [Sucrose]
% survival (27 J/cm^2) [6]: 84 ± 18% | % survival (dark) [6]: 124 ± 9% | reduction in viable C. albicans [4, 11]: No significant reduction | % survival (27 J/cm^2) ([7]; Dilution 1:200, blue light): 98 ± 19% | % survival (dark) ([7]; Dilution 1:200, no irradiation): 204 ± 22% | % survival (9.5 J/cm^2) [5, 9]: 134 ± 14% | % survival (dark) [5, 10]: 113 ± 5%

OC[C@@H](O)[C@H](O)[C@@H](O)CO [Xylitol]
% survival (27 J/cm^2) [6]: 74 ± 17% | % survival (dark) [6]: 72 ± 19% | reduction in viable C. albicans [4, 11]: No significant reduction | toxicity of NADES 26 components to E. coli ([3]; choline chloride 5 M, xylitol […]): non-toxic | % survival (27 J/cm^2) ([7]; Dilution 1:200, blue light): 143 ± 17% | % survival (dark) ([7]; Dilution 1:200, no irradiation): 140 ± 19% | toxicity to P. aeruginosa [7]: not toxic at all | % survival (9.5 J/cm^2) [5, 9]: 118 ± 12% | % survival (dark) [5, 10]: 98 ± 10%

O=C(CO)[C@@H](O)[C@H](O)[C@H](O)CO [fructose, D-(−)-fructose]
reduction in viable C. albicans [4, 11]: No significant reduction | toxicity of individual NADES component to E. faecalis [2]: not toxic

CO [methanol]
ENR [8]: 51.9 kcal/mol

O [water]
ENR [8]: 48.2 kcal/mol

tetra-(4-carboxyphenyl)-porphine [TCPP]
viable S. aureus after treatment ([1]; 1 nM TCPP in NADES 3, light): no viable bacteria detected | phototoxicity to S. aureus ([1]; 1 nM TCPP in pure PBS): killed half of the viable bacteria | photoinactivation of S. aureus ([1]; TCPP up to 1 μM in PBS): did not result in complete photoinactivation | photoinactivation of S. aureus ([1]; TCPP up to 1 μM in pH-neutral NADES 26): did not result in complete photoinactivation | eradication of E. faecalis after photodynamic treatment ([2]; 1 nM TCPP in acidic NADES 3): almost complete eradication | eradication of E. faecalis after photodynamic treatment ([2]; 1 nM TCPP in acidic NADES 14): almost complete eradication | eradication of E. faecalis after photodynamic treatment ([2]; 1 nM TCPP in acidic NADES 40): almost complete eradication | eradication of E. faecalis after photodynamic treatment ([2]; 1 nM TCPP in citric acid solution): almost complete eradication | phototoxicity to E. faecalis ([2]; 1 nM TCPP in pure PBS): not very phototoxic | eradication of E. faecalis after light treatment ([2]; 1 μM TCPP in neutral NADES 26): complete eradication | surviving colony forming units ([2]; 1 μM TCPP in pure PBS, light, E. faecalis): approximately 300 colony forming units | phototoxicity to E. coli ([3]; 1 nM TCPP): not phototoxic | phototoxicity to E. coli ([3]; 40 nM TCPP in pure PBS): not phototoxic | photoinactivation of E. coli ([3]; 0.6 μM TCPP in NADES 40): complete photoinactivation | surviving colony forming units per ml ([3]; 0.6 μM TCPP in citric acid solution, light): 20 000 colony forming units per ml

tetra-(4-trimethylanilinum)-porphine tetrachloride [TMAP]
toxicity to C. albicans [4]: not toxic | increase of phototoxicity compared to the citric acid solution ([2]; 1 nM TMAP in NADES 14 (final dilution 1:400), E. faecalis): 35 times | viable E. coli after photodynamic treatment ([3]; 1 nM TMAP in NADES 35, dilution 1:800 with PBS): no viable | phototoxicity to E. coli ([3]; 1 nM TMAP in PBS, p>0.05): not enough to make this porphyrin significantly phototoxic | phototoxicity to E. coli ([3]; 1 nM TMAP in neutral NADES 26 (1:200), p>0.05): not enough to make this porphyrin significantly phototoxic | phototoxicity to E. coli ([3]; 1 nM TMAP in neutral NADES 39 (1:100), p>0.05): not enough to make this porphyrin significantly phototoxic | surviving colony forming units [3, 12]: 0.2% | surviving colony forming units per ml [3, 12]: 10 000 colony forming units per ml | surviving colony forming units [3, 13]: 0.2% | surviving colony forming units per ml [3, 13]: 10 000 colony forming units per ml | phototoxicity to P. aeruginosa ([7]; 1 nM or 5 nM TMAP in PBS): not phototoxic | photoinactivation of S. epidermidis [5]: did not result in complete photoinactivation
